Data published in US20150204846A1, “PHOSPHATIDYLINOSITOL-3-KINASE C2 BETA MODULATORS AND METHODS OF USE THEREOF” (NEW YORK UNIVERSITY, priority 2012, published 2015).
Entries after “also recorded” stand apart in the source; their conditions may differ.

Tested on: KCa3.1
Assay: Whole cell patch clamp of FcεR1 stimulated KCa3.1 channel activity in BMMCs
Format: cell-based, mouse
Conditions: for rescue of FcεR1 stimulated KCa3.1 channel activity: TRIM27+/+ BMMC transfected with siRNA to PI3KC2β, phosphoinositide added to the pipette solution (PI3P 100 nM)
Experimental: Whole cell patch clamping was performed on TRIM27^+/+ and TRIM27^−/− BMMCs that were first sensitized overnight with anti-DNP IgE and then stimulated with DNP-HSA using conditions previously described (5). Briefly, the standard pipette solution contained 140 mM KCl, 2 mM MgCl2, 10 mM Hepes, 2 mM Na^+-ATP and 0.1 mM GTP, pH 7.3. The standard external solution contained 140 mM NaCl, 5 mM KCl, 2 mM CaCl2, 1 mM MgCl2 and 10 mM Hepes, pH 7.3. Whole-cell currents were recorded using an Axoclamp 200 B amplifier (Axon Instruments, Foster City, Calif., USA), and currents were evoked by applying voltage commands to a range of potentials in 10 mV steps from a holding potential of 20 mV. For measuring the membrane potential, ruptured patch was used in current clamp mode as described in (34).
To verify that PI3KC2β mediated activation of KCa3.1 via the generation of PI3P, PI3P (100 nM) was added into the pipette solution during patch clamping in BMMCs in which PI3KC2β was knocked down using siRNA (32). PI(3)P diC16 [C41H45Na3O16P2 (C6)] was purchased from Echelon Biosciences and used according to specifications at a concentration of 100 nM in the pipette solution.

| Molecule | rescue of FcεR1 stimulated KCa3.1 channel activity | rescue of KCa3.1 channel activity (TRIM27-/- BMMC transfected with siRNA to PI3KC2β, PI3P added to the pipette solution) | rescue of FcεR1 stimulated KCa3.1 channel activity (listed as PI(4)P) |
| --- | --- | --- | --- |
| CCCCCCCCCCCCCCCC(=O)OC[C@H](COP(=O)(O)O[C@@H]1[C@H](O)[C@H](OP(=O)(O)O)[C@@H](O)[C@H](O)[C@H]1O)OC(=O)CCCCCCCCCCCCCCC [PI3P, phosphatidylinositol 3 phosphate] | restored | rescue |  |
| PI4P | failed to rescue |  | failure |
| PI(3,4,5)P3 | failed to rescue; also recorded: failure |  |  |
